Source: US9949953B2, “Topical compositions comprising fipronil and permethrin and methods of use” (priority 2012, dated 2018)

Tested on: Stomoxys calcitrans
Assay: Stable fly repellency and parasiticidal (diptericidal) efficacy on rats (Example 1)
Assay type: in vivo
Procedure: This study evaluated the effectiveness of a formulation of the invention containing fipronil and permethrin to repel and kill Stomoxys calcitrans on rats after a single administration. Rats in the treatment group (Group 2) were treated once on Day 0 with a topical formulation of the invention containing 9.2 (w/w) fipronil and 41.5% (w/w) permethrin in a solvent system containing DMDA and DGME in a ratio of 0.73:1, DMDA to DGME, to deliver a dose of 30 mg/kg permethrin and 6.7 mg/kg fipronil. Rats in Group 3 were treated with a formulation containing permethrin alone to deliver a dose of 30 mg/kg. The two treatment groups were compared with a control group treated with a solvent system placebo.
Flies are exposed to the treated rats for 1 hr., then removed. Dead flies are counted at the end of the exposure period and at 4 hr and 24 hr post-exposure. […] This finding is significant because fipronil is not known to have repellent activity.
The diptericidal efficacy of the formulations is shown in Table 1 and represented in FIG. 6. The data for repellency are shown in Table 2 and are represented in FIG. 7.

CC1(C)C(C=C(Cl)Cl)C1C(=O)OCc1cccc(Oc2ccccc2)c1 (stereo not shown) [Permethrin]
4 hr % efficacy (dead flies 4 hr post-exposure, single topical treatment Day 0): 82.0%
24 hr % efficacy (dead flies 24 hr post-exposure, single topical treatment Day 0): 74.7%
EOE % efficacy (dead flies at end of 1 hr exposure period, single topical treatment Day 0): 74.2%
% Repellency (single topical treatment Day 0, measured 24 hours after exposure): 41.2%
